According to publication PMC9886279, “A choline-releasing glycerophosphodiesterase essential for phosphatidylcholine biosynthesis and blood stage development in the malaria parasite” (eLife, 2022):

Target: T1, PfGDPD-HA (PfGDPD; glycerophosphodiesterase) (Plasmodium falciparum, UniProt Q8IM31)
T1 construct: gene PF3D7_1406300; endogenous locus, recodonised segment 24-475 aa, C-terminal 3xHA tag kept; 475-residue precursor with N-terminal signal peptide
Assay: LC-MS/MS of GPC consumption and choline release by bead-bound affinity-purified enzyme
Assay type: biochemical
Settings: enzyme immobilised on anti-HA beads; 100 mM HEPES pH 7.5, 150 mM NaCl, 10 mM MgCl2, 37°C; GPC 1 mM (Methods) or 10 mM (Figure 6 legend)

T1 sequence (Q8IM31 entry or part of it): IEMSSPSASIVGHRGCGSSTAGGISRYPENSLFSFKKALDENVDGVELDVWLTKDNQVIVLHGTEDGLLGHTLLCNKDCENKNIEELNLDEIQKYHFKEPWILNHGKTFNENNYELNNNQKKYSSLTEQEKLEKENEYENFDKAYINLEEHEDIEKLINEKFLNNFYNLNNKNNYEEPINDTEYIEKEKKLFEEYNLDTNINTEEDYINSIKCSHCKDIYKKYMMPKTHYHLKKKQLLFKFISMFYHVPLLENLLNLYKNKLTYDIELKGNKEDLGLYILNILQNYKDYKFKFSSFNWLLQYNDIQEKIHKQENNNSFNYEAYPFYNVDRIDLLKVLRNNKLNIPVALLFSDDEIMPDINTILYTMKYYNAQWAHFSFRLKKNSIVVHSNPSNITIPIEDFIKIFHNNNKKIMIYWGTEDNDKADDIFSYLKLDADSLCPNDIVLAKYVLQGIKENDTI

C[N+](C)(C)CCOP(=O)([O-])OC[C@H](O)CO [GPC]
LC-MS/MS of GPC consumption and choline release by bead-bound affinity-purified: resulted in the time-dependent appearance of choline with a concomitant decrease in GPC levels
